Experimental data as given in US20210130339A1, “COMPOUNDS” (GLAXOSMITHKLINE INTELLECTUAL PROPERTY DEVELOPMENT LIMITED, priority 2017, published 2021).
“And” between values parts separate entries of the source, which are not always exact repeats. Identical values can stand only once.

Target: T1, recombinant full length LRRK2 (Homo sapiens, UniProt Q5S007)
T1 construct: A BacMam virus expressing full length recombinant LRRK2 was purchased from Invitrogen; host or cells: SH-SY5Y human neuroblastoma cells transduced with BacMam LRRK2 virus (MOI 50)
Experiment: Recombinant cellular LRRK2 AlphaScreen assay
Format: cell-based
Details: LRRK2 Ser935 phosphorylation, SH-SY5Y cells over-expressing recombinant full length LRRK2; read-out: pIC50 in the recombinant cellular LRRK2 AlphaScreen assay (converted)
Text: b. Recombinant Cellular LRRK2 AlphaScreen Assay
To determine the activity of compounds against LRRK2 kinase activity in cells, the observed LRRK2 kinase-dependent modulation of LRRK2 Ser 935 phosphorylation (Dzamko et al., 2010, Biochem. J. 430: 405-413) was utilized to develop a quantitative 384 well plate-based immunoassay of LRRK2 Ser935 phosphorylation in the human neuroblastoma cell line SH-SY5Y, engineered to over-express recombinant full length LRRK2 protein. A BacMam virus expressing full length recombinant LRRK2 was purchased from Invitrogen and amplified by inoculation of SF-9 cells at MOI 0.3 for 4-5 days in Sf-900 III SFM medium supplemented with 3% fetal bovine serum. Infected cell cultures were then centrifuged at 2000 g for 20 minutes, viral supernatant titer determined by anti-gp64 plaque assay and stored at 4° C. Affinity-purified anti-phospho LRRK2 Ser935 sheep polyclonal antibody (Dzamko et al., 2010, Biochem. J. 430: 405-413) was biotinylated by standard methods (PerkinElmer). Anti-LRRK2 rabbit polyclonal antibody was purchased from Novus Biologicals. AlphaScreen Protein A IgG Kit (including acceptor and donor beads) was purchased from Perkin Elmer. SH-SY5Y cells were grown in DMEM/F12 medium with 10% dialysed fetal bovine serum and harvested by treatment with 0.5% trypsin-EDTA for 5 minutes at 37° C. followed by centrifugation at 1000 rpm for 4 minutes. The cell pellet was resuspended in Opti-MEM reduced serum media (Invitrogen) at 200,000 cells/ml and mixed with the BacMam LRRK2 virus at MOI=50. 50 μl cell solutions were then dispensed to each well of a 384-well plate and incubated at 37° C., 5% CO2 for 24 hours. Serial dilutions of test compounds were prepared in Opti-MEM reduced serum media (Invitrogen) and 5.6 ul transferred from compound plate to cell assay plate to achieve a top final assay concentration of 10 uM. DMSO was used in certain wells as controls. Cells were incubated at 37° C., 5% CO2 for 60 minutes. The medium was then removed and cells lysed by addition of 20 ul cell lysis buffer (Cell Signaling Technology) and incubation at 4° C. for 20 minutes. 10 ul of antibody/acceptor bead mix [(1/1000 biotinylated-pS935 LRRK2 antibody, 1/1000 total-LRRK2 antibody, 1/100 Acceptor beads in AlphaScreen detection buffer (25 mM Hepes (pH 7.4), 0.5% Triton X-100, 1 mg/ml Dextran 500 and 0.1% BSA)] was then added to each well and plates incubated for 2 hours at ambient temperature in the dark. 10 μl of donor beads solution (1/33.3 donor beads in AlphaScreen detection buffer) was then added to each well. Following incubation for a further 2 hours at ambient temperature in the dark, plates were read on an EnVision™ plate reader at emission 520-620 nm with excitation 680 nm. Dose response curve data was based on sigmoidal dose-response model.

T1 sequence (Q5S007 whole entry): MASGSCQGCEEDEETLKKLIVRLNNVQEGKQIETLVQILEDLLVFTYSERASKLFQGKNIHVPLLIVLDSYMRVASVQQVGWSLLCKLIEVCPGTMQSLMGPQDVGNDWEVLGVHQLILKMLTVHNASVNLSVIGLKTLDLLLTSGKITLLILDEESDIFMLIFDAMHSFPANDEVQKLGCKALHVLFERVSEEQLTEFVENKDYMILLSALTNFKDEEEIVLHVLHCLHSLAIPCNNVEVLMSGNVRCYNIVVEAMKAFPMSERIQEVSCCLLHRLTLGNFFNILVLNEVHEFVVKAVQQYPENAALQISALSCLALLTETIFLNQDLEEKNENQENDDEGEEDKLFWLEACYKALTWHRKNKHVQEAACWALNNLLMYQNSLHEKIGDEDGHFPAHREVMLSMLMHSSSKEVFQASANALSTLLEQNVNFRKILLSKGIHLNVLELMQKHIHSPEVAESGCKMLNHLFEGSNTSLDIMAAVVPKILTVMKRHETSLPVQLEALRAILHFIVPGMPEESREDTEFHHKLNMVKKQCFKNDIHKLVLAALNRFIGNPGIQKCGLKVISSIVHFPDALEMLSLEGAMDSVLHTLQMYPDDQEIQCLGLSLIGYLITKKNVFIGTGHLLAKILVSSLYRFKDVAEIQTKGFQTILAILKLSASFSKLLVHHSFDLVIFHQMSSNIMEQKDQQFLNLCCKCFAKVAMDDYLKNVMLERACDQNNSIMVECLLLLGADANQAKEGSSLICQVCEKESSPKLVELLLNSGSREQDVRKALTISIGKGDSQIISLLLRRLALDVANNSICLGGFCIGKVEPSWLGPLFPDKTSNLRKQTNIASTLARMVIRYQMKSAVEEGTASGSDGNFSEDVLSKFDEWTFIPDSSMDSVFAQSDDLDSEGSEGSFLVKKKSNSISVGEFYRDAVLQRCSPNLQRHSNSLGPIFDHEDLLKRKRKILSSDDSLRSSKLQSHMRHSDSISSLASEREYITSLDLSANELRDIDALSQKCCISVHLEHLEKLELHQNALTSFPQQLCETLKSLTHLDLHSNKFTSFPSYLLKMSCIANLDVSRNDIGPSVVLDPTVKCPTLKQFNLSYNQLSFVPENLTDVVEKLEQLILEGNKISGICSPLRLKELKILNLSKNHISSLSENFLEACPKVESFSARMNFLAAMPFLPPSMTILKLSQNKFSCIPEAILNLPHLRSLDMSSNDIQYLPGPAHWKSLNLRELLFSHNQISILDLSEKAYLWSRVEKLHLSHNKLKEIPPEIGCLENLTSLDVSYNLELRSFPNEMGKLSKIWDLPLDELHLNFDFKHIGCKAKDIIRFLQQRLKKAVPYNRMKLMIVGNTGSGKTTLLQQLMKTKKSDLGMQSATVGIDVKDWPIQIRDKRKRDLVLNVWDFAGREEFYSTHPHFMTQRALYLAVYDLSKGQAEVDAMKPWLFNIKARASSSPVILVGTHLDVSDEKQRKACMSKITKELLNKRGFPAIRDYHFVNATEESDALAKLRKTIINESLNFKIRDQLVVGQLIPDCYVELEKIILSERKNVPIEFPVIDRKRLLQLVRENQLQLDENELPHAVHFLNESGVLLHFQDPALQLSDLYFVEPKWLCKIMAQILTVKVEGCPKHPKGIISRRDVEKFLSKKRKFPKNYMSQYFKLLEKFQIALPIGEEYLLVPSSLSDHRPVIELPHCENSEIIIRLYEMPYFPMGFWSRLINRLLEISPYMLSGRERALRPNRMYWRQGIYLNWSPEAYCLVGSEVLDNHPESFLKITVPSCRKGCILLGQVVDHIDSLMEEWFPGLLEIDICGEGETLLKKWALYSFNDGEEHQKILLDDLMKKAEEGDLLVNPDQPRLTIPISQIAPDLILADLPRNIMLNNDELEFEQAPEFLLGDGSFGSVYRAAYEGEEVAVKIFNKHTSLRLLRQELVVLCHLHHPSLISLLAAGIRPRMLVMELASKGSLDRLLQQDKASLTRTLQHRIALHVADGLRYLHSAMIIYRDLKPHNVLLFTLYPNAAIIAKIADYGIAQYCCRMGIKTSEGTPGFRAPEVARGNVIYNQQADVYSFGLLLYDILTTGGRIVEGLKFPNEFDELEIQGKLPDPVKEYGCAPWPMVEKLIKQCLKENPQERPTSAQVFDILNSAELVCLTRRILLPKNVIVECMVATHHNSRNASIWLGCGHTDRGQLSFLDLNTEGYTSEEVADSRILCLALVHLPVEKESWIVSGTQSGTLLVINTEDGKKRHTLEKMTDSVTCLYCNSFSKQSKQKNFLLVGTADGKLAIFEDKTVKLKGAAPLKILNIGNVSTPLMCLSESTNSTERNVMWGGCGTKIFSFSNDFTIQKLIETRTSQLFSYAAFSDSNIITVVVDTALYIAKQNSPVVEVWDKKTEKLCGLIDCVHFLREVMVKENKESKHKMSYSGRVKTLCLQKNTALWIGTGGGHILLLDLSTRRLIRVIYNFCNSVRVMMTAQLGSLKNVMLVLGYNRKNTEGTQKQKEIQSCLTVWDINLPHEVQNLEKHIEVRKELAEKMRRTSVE

Row | SMILES | IC50
1 | COc1nc(N2CC(C(C)O)C2)cc(-n2ncc3cc(C)c(C4CCN(C5CCOC5)CC4)cc32)n1 (single isomer, unassigned) [Example E97, 1-(1-(2-methoxy-6-(5-methyl-6-(1-(tetrahydrofuran-3-yl)piperidin-4-yl)-1H-indazol-1-yl)pyrimidin-4-yl)azetidin-3-yl)ethanol] | ≤ 100 nM
2 | Cc1nc(N[C@@H]2CCOC2)cc(-n2ncc3cc(C)c(C4CCN(C5CCOC5)CC4)cc32)n1 (stereo partly drawn) [Example E143, 2-methyl-6-(5-methyl-6-(1-(tetrahydrofuran-3-yl)piperidin-4-yl)-1H-indazol-1-yl)-N—((R)-tetrahydrofuran-3-yl)pyrimidin-4-amine] | ≤ 1000 nM
3 | [2H]C1([2H])CC(c2cc3c(cnn3-c3cc(N4CCO[C@@H](CO)C4)nc(C)n3)cc2C)CC([2H])([2H])N1[C@H]1CCOC1 [Example E96, ((R)-4-(2-methyl-6-(5-methyl-6-(1-((S)-tetrahydrofuran-3-yl)piperidin-4-yl-2,2,6,6-d4)-1H-indazol-1-yl)pyrimidin-4-yl)morpholin-2-yl)methanol] | ≤ 100 nM and 100 nM
4 | Cc1nc(N2CCO[C@H](CO)C2)cc(-n2ncc3cc(C)c(C4CCN(C5CCOC5)CC4F)cc32)n1 (single isomer, unassigned) [Example E104] | ≤ 100 nM
5 | Cc1nc(N[C@H]2CCOC2)cc(-n2ncc3cc(C)c(C4CCN(C5CCOC5)CC4)cc32)n1 (stereo partly drawn) [Example E144, 2-methyl-6-(5-methyl-6-(1-(tetrahydrofuran-3-yl)piperidin-4-yl)-1H-indazol-1-yl)-N—((S)-tetrahydrofuran-3-yl)pyrimidin-4-amine] | ≤ 1000 nM
6 | [2H]C1(N2CCC(c3cc4c(cnn4-c4cc(N5CCO[C@@H](CO)C5)nc(C)n4)cc3C)CC2)CCOC1 (single isomer, unassigned) [Example E35] | 200 nM
7 | Cc1nc(N2CCO[C@H](CO)C2)cc(-n2ncc3cc(C)c(C4CCN(C5CCOC5)CC4F)cc32)n1 (single isomer, unassigned) [Example E105] | ≤ 100 nM
8 | COc1nc(N2CC(O)C2)cc(-n2ncc3cc(C)c(C4CCN(C5CCOC5)CC4F)cc32)n1 (single isomer, unassigned) [Example E5, cis-1-(6-(6-(3-Fluoro-1-(tetrahydrofuran-3-yl)piperidin-4-yl)-5-methyl-1H-indazol-1-yl)-2-methoxypyrimidin-4-yl)azetidin-3-ol] | ≤ 10 nM and 5.01 nM
9 | Cc1nc(OC2CC(O)C2)cc(-n2ncc3cc(C)c(C4CCN(C5CCOC5)CC4)cc32)n1 (single isomer, unassigned) [Example E145, 3-((2-methyl-6-(5-methyl-6-(1-(tetrahydrofuran-3-yl)piperidin-4-yl)-1H-indazol-1-yl)pyrimidin-4-yl)oxy)cyclobutanol] | ≤ 1000 nM
10 | COc1nc(N2CC[C@H](O)C2)cc(-n2ncc3cc(C)c(C4CCN(C5CCOC5)CC4)cc32)n1 (single isomer, unassigned) [Example E17] | ≤ 100 nM
11 | COc1nc(N2CCNC(=O)C2)cc(-n2ncc3cc(C)c(C4CCN(C5CCOC5)CC4F)cc32)n1 (single isomer, unassigned) [Example E53, 4-(6-(6-(3-Fluoro-1-(tetrahydrofuran-3-yl)piperidin-4-yl)-5-methyl-1H-indazo-1-yl)-2-methoxypyrimidin-4-yl)piperazin-2-one] | ≤ 10 nM
12 | Cc1nc(N[C@H]2C[C@H](O)C2)cc(-n2ncc3cc(C)c(C4CCN(C5CCOC5)CC4)cc32)n1 (single isomer, unassigned) [Example E132, trans-3-((2-methyl-6-(5-methyl-6-(1-(tetrahydrofuran-3-yl)piperidin-4-yl)-1H-indaz-ol-1-yl)pyrimidin-4-yl)amino)cyclobutanol] | ≤ 1000 nM
13 | COc1nc(N2CC[C@@H](O)C2)cc(-n2ncc3cc(C)c(C4CCN(C5CCOC5)CC4)cc32)n1 (single isomer, unassigned) [Example E19] | ≤ 100 nM
14 | COc1nc(N2CC(C(C)O)C2)cc(-n2ncc3cc(C)c(C4CCN(C5CCOC5)CC4)cc32)n1 (single isomer, unassigned) [Example E98, 1-(1-(2-methoxy-6-(5-methyl-6-(1-(tetrahydrofuran-3-yl)piperidin-4-yl)-1H-indazol-1-yl)pyrimidin-4-yl)azetidin-3-yl)ethanol] | ≤ 100 nM
15 | Cc1nc(N2CCO[C@@H](CO)C2)cc(-n2ncc3cc(Cl)c(C4CCN(C5CCOC5)CC4)cc32)n1 (single isomer, unassigned) [Example E129] | ≤ 1000 nM
16 | COc1nc(N2CCOC(C(C)O)C2)cc(-n2ncc3cc(C)c(C4CCN(C5CCOC5)CC4)cc32)n1 (single isomer, unassigned) [Example E21, 1-(4-(2-Methoxy-6-(5-methyl-6-(1-(tetrahydrofuran-3-yl)piperidin-4-yl)-1H-indazol-1-yl)pyrimidin-4-yl)morpholin-2-yl)ethanol] | ≤ 100 nM
17 | Cc1nc(N2CC(C)OC(CO)C2)cc(-n2ncc3cc(C)c(C4CCN(C5CCOC5)CC4)cc32)n1 (single isomer, unassigned) [Example E60, (6-Methyl-4-(2-methyl-6-(5-methyl-6-(1-(tetrahydrofuran-3-yl)piperidin-4-yl)-1H-indazol-1-yl)pyrimidin-4-yl)morpholin-2-yl)methanol] | ≤ 100 nM
18 | COc1nc(N2CCO[C@H](CO)C2)cc(-n2ncc3cc(C)c(C4CCN(C5CCOC5)CC4F)cc32)n1 (single isomer, unassigned) [Example E122] | ≤ 10 nM
19 | Cc1nc(N2CCO[C@H](CO)C2)cc(-n2ncc3cc(Cl)c(C4CCN(C5CCOC5)CC4)cc32)n1 (single isomer, unassigned) [Example E25] | ≤ 100 nM
20 | COc1nc(N2CC(C(C)O)C2)cc(-n2ncc3cc(C)c(C4CCN(C5CCOC5)CC4)cc32)n1 (single isomer, unassigned) [Example E100, 1-(1-(2-methoxy-6-(5-methyl-6-(1-(tetrahydrofuran-3-yl)piperidin-4-yl)-1H-indazol-1-yl)pyrimidin-4-yl)azetidin-3-yl)ethanol] | ≤ 1000 nM
21 | Cc1nc(N2CC(CC(C)O)C2)cc(-n2ncc3cc(Cl)c(C4CCN(C5CCOC5)CC4)cc32)n1 (single isomer, unassigned) [Example E44, 1-(1-(6-(5-Chloro-6-(1-(tetrahydrofuran-3-yl)piperidin-4-yl)-1H-indazol-1-yl)-2-methylpyr-imidin-4-yl)azetidin-3-yl)propan-2-ol] | ≤ 100 nM
22 | COc1nc(N2CC(O)C2)cc(-n2ncc3cc(Cl)c(C4CCN(C5CCOC5)CC4)cc32)n1 (single isomer, unassigned) [Example E29, 1-(6-(5-Chloro-6-(1-(tetrahydrofuran-3-yl)piperidin-4-yl)-1H-indazol-1-yl)-2-methoxy-pyrimidin-4-yl)azetidin-3-ol] | ≤ 10 nM
23 | Cc1nc(N2CCO[C@@H](CO)C2)cc(-n2ncc3cc(C)c(C4CCN(C5CCOC5)CC4F)cc32)n1 (single isomer, unassigned) [Example E101] | ≤ 100 nM
24 | COc1nc(N2CC(C(C)O)C2)cc(-n2ncc3cc(C)c(C4CCN(C5CCOC5)CC4)cc32)n1 (single isomer, unassigned) [Example E99, 1-(1-(2-methoxy-6-(5-methyl-6-(1-(tetrahydrofuran-3-yl)piperidin-4-yl)-1H-indazol-1-yl)pyrimidin-4-yl)azetidin-3-yl)ethanol] | ≤ 1000 nM
25 | COc1nc(N2CCO[C@H](CO)C2)cc(-n2ncc3cc(C)c(C4CCN(C5CCOC5)CC4F)cc32)n1 (single isomer, unassigned) [Example E123] | ≤ 10 nM
26 | Cc1nc(N2CCO[C@H](CO)C2)cc(-n2ncc3cc(C)c(C4CCN(C5CCOC5)CC4F)cc32)n1 (single isomer, unassigned) [Example E103] | ≤ 100 nM
27 | COc1nc(N2CCO[C@H](CO)C2)cc(-n2ncc3cc(C)c(C4CCN(C5CCOC5)CC4F)cc32)n1 (single isomer, unassigned) [Example E121] | ≤ 10 nM
